Measured values: ChEMBL document CHEMBL4808253, “Discovery of 1,3,4-oxadiazole derivatives as potential antitumor agents inhibiting the programmed cell death-1/programmed cell death-ligand 1 interaction” (Bioorg Med Chem, 2021)
Calls of active or inactive are those of the source. No cut-off for these calls is given here.

Experiments:
[1] = target: T1, Programmed cell death protein 1/Programmed cell death 1 ligand 1 (Homo sapiens, UniProt Q15116+Q9NZQ7); assay: Inhibition of PD1/PD-L1 (unknown origin); type: protein-complex assay
T1 sequence (Q15116 whole entry): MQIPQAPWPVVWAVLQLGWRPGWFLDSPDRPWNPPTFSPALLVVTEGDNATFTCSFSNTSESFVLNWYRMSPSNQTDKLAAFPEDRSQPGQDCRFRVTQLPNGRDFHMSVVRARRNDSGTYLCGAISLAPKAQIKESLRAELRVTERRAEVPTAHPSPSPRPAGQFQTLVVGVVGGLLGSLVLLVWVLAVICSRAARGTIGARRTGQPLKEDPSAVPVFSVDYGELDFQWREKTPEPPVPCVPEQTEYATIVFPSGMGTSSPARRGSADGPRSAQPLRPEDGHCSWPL
T1 sequence (Q9NZQ7 whole entry): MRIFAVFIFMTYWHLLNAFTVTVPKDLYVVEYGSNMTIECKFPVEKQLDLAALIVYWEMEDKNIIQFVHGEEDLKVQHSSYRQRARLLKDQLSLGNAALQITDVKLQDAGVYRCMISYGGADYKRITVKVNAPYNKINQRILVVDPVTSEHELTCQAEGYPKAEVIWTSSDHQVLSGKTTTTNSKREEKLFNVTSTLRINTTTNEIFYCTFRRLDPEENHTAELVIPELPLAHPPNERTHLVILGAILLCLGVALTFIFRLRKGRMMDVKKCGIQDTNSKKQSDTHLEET

[2] = Toxicity in BALB/c mouse allografted with mouse CT26 cells assessed as body weight change at 30 mg/kg, ip for 48 hrs measured for 14 days relative to control; type: organism-based; settings: in vivo, 336 h, time 14 day
[3] = Toxicity in BALB/c mouse allografted with mouse CT26 cells assessed as unusual behaviour at 30 mg/kg, ip for 48 hrs measured for 14 days relative to control; type: organism-based; settings: in vivo, 336 h, time 14 day
[4] = system: CT26; assay: Antitumor activity against mouse CT26 cells allografted in BALB/c mouse assessed as tumor growth inhibition at 30 mg/kg, ip for 48 hrs measured for 14 days relative to control; type: functional; settings: 336 h, time 14 day, read-out: TGI
[5] = target: T1, Programmed cell death protein 1/Programmed cell death 1 ligand 1; assay: Inhibition of PD1/PD-L1 (unknown origin) protein-protein interaction measured after 135 mins by TR-FRET assay relative to control; type: protein-complex assay
[6] = Toxicity in BALB/c mouse allografted with mouse CT26 cells assessed as body weight change at 15 mg/kg, ip for 48 hrs measured for 14 days relative to control; type: organism-based; settings: in vivo, 336 h, time 14 day
[7] = system: CT26; assay: Antiproliferative activity against mouse CT26 cells assessed as inhibition of cell growth incubated for 48 hrs by MTT assay; type: functional, cell-based; settings: CT26, 48 h
[8] = Toxicity in BALB/c mouse allografted with mouse CT26 cells assessed as unusual behaviour at 15 mg/kg, ip for 48 hrs measured for 14 days relative to control; type: organism-based; settings: in vivo, 336 h, time 14 day
[9] = system: CT26; assay: Antitumor activity against mouse CT26 cells allografted in BALB/c mouse assessed as tumor growth inhibition at 15 mg/kg, ip for 48 hrs measured for 14 days relative to control; type: functional; settings: 336 h, time 14 day, read-out: TGI
[10] = system: CT26; assay: Antitumor activity against […] in BALB/c mouse assessed as increase in infiltration of CD4+ T cells into tumor cells at 15 mg/kg, ip for 48 hrs measured for 14 days relative to control; type: functional, organism-based
[11] = system: CT26; assay: Antitumor activity against […] in BALB/c mouse assessed as increase in infiltration of CD4+ T cells into tumor cells at 15 mg/kg, ip for 48 hrs in presence of 5-Fu by immunohistochemistry analysis; type: functional, organism-based
[12] = system: CT26; assay: Antitumor activity against mouse CT26 cells allografted in BALB/c mouse assessed as tumor growth inhibition at 15 mg/kg, ip for 48 hrs measured for 14 days in presence of 5-Fu relative to control; type: functional; settings: read-out: TGI
[13] = system: CT26; assay: Antiproliferative activity against […] cells assessed as inhibition of cell growth at 11.11 uM incubated for 48 hrs by MTT assay; type: functional; settings: Mus musculus
[14] = system: CT26; assay: Antitumor activity against mouse CT26 cells allografted in BALB/c mouse assessed as tumor growth inhibition at 15 mg/kg, ip for 24 hrs measured for 14 days relative to control; type: functional; settings: 336 h, time 14 day, read-out: TGI
[15] = Toxicity in BALB/c mouse allografted with mouse CT26 cells assessed as body weight change at 15 mg/kg, ip for 24 hrs measured for 14 days relative to control; type: organism-based; settings: in vivo, 336 h, time 14 day
[16] = Toxicity in BALB/c mouse allografted with mouse CT26 cells assessed as unusual behaviour at 15 mg/kg, ip for 24 hrs measured for 14 days relative to control; type: organism-based; settings: in vivo, 336 h, time 14 day

## Cc1c(-c2nc3cc(CN4CC[C@@](C)(C(=O)O)C4)cc(C#N)c3o2)cccc1-c1cccc(NC(=O)c2nc3c(n2C)CCN(C[C@@H](C)O)C3)c1Cl
[1]
  IC50: < 10 nM

## O=c1[nH]cc(F)c(=O)[nH]1 [FLUOROURACIL]
[2]
  Activity: Non-Toxic
[3]
  Activity: Non-Toxic
[4]
  inhibition in vivo at 30 mg/kg: 29.8%

## Cc1c(-c2nc3cc(CN4CCCC[C@H]4C(=O)O)cc(Cl)c3o2)cccc1-c1cccc(NC(=O)c2ccc(CNCCO)cn2)c1Cl
[1]
  IC50: < 10 nM

## Cc1ccccc1-c1cccc(COc2ccc(CNC(CO)(CO)CO)c(OCc3nnc(-c4ccccc4)o3)c2)c1C
[5]
  IC50: 150 nM

## CS(=O)(=O)c1cncc(COc2nc(O[C@H]3CCc4c(-c5cccc6c5CC[C@@H]6Oc5nc(OCc6cncc(S(C)(=O)=O)c6)c(CN6C[C@@H](O)C[C@H]6C(=O)O)cc5Cl)cccc43)c(Cl)cc2CN2C[C@@H](O)C[C@H]2C(=O)O)c1
[1]
  IC50: 0.051 nM

## Cc1c(COc2ccc(CNC(CO)(CO)CO)c(OCc3nnc(-c4ccccc4)o3)c2)cccc1-c1cccc(OCCCN2CCC(CO)CC2)c1
[6]
  Activity: Non-Toxic
[7]
  IC50: 19800 nM
[8]
  Activity: Non-Toxic
[9]
  inhibition in vivo at 15 mg/kg: 35.7%
[10]
  Activity: Active
[11]
  Activity: Active
[12]
  inhibition in vivo at 15 mg/kg: 64.6%
[5]
  IC50: 38 nM
[13]
  inhibition at 11.11 µM: 75%

## Cc1c(COc2ccc(CNC(CO)(CO)CO)c(OCc3nc(-c4ccc(F)cc4)cs3)c2)cccc1-c1cccc(OCCCN2CCC(CO)CC2)c1
[5]
  IC50: 398 nM

## COc1nc(OCc2cccc(-c3ccccc3)c2C)ccc1CNCCNC(C)=O
[14]
  inhibition in vivo at 15 mg/kg: 22.9%
[7]
  IC50: 3350 nM
[15]
  Activity: Non-Toxic
[16]
  Activity: Non-Toxic
[13]
  inhibition at 11.11 µM: 75%

## Cc1c(COc2ccc(CNC(CO)(CO)CO)c(OCc3nc(-c4ccc(F)cc4)cs3)c2)cccc1-c1cccc(OCCCN2CCC(O)CC2)c1C
[5]
  IC50: 167 nM

## Cc1c(COc2ccc(CNC(CO)(CO)CO)c(OCc3nnc(-c4ccccc4)o3)c2)cccc1-c1cccc(OCCCN2CCOCC2)c1
[5]
  IC50: 642 nM

## C[C@@](CO)(NCc1cc(Cl)c(O[C@H]2CCc3c(-c4cccc5c4CC[C@@H]5Oc4nc(OCc5cncc(S(C)(=O)=O)c5)c(CN[C@@](C)(CO)C(=O)O)cc4Cl)cccc32)nc1OCc1cncc(S(C)(=O)=O)c1)C(=O)O
[1]
  IC50: 0.058 nM
